Columns and labels:
[1] = target: GSNOR (Homo sapiens (Human), UniProt P11766); assay: GSNOR IC50 (method in incorporated applications); assay type: biochemical
[2] = target: T1, human NK3 receptor (Homo sapiens (Human), UniProt P29371); assay: Human NK3 receptor binding assay at 10 μM; settings: 10 μM test compound; [3H]SR142801, CHO cell membranes; read-out: percent inhibition at 10 μM
Protocol: Antagonist activity was evaluated at a concentration of 10 μM for a representative subset of test compounds, and the results were expressed as the percent inhibition at that concentration.
Each test compound was evaluated at a single concentration of 10 μM. […] The results are expressed as a percent of control specific binding ((measured specific binding/control specific binding)×100) obtained in the presence of the test compounds.

[3] = target: T1, human NK3 receptor; assay: biochemical
[4] = target: T1, human NK3 receptor; assay: Human NK3 receptor binding assay at 1 uM; settings: 1 μM test compound; [3H]SR142801, CHO cell membranes; read-out: percent inhibition at 1 μM
Protocol: Antagonist activity was evaluated at a concentration of 1 μM for a representative subset of test compounds, and the results were expressed as the percent inhibition at that concentration.
Each test compound was evaluated at a single concentration of 1 μM. […] The results are expressed as a percent of control specific binding ((measured specific binding/control specific binding)×100) obtained in the presence of the test compounds.

[5] = target: T1, human NK3 receptor; assay: Human neurokinin NK3 receptor agonist effect (Ca2+ mobilization, CHO cells); assay type: cell-based; settings: highest tested concentration; CHO cells transfected with human NK3 receptor
Protocol: This model evaluates the agonist activity of compounds in CHO cells transfected with the human NK3 receptor. Agonist activity is determined by measuring the effect of compounds on cytosolic Ca^2+ ion mobilization using a fluorimetric detection method.
The transfected CHO cells are suspended in DMEM buffer (Invitrogen) supplemented with 0.1% FCS, then distributed in 96-well microplates at a density of 3×10^4 cells/well. The fluorescent probe (Calcium4, Molecular Device) is mixed with probenicid in HBSS buffer plus 20 mM Hepes (pH 7.4) (Invitrogen) and added into each well. The probe is allowed to equilibrate with the cells for 60 minutes at 37° C. followed by a 15 minute incubation at 22° C. Thereafter, the assay plates are positioned in a microplate reader (CellLux, PerkinElmer) and the test compound, reference agonist or HBSS buffer (basal control) is added. Changes in fluorescence intensity, which varies proportionally to the free cytosolic Ca^2+ ion concentration, are then measured. For stimulated control measurements, [MePhe^7]-NKB at 10 nM is added in separate assay wells, and the results are expressed as a percent of the control response to 10 nM [MePhe^7]-NKB.
The standard reference agonist is [MePhe^7]-NKB, which is tested in each experiment at several concentrations to generate a concentration-response curve from which an EC50 value can be calculated.

[6] = target: T1, human NK3 receptor; assay: Human neurokinin NK3 receptor antagonist effect (agonist-induced Ca2+ mobilization, CHO cells); assay type: cell-based; settings: 10 uM; response to 1 nM [MePhe7]-NKB, CHO cells transfected with human NK3 receptor
Protocol: This model evaluates the antagonist activity of compounds in CHO cells transfected with the human NK3 receptor. Antagonist activity is determined by measuring the effect of compounds on agonist-induced cytosolic Ca^2+ ion mobilization using a fluorimetric detection method.
The cells are suspended in DMEM buffer (Invitrogen) supplemented with 0.1% FCS and distributed in 96-well microplates at a density of 3×10^4 cells/well. The fluorescent probe (Calcium4, Molecular Device) is mixed with probenicid in HBSS buffer plus 20 mM Hepes (pH 7.4) (Invitrogen) and added into each well. The probe is allowed to equilibrate with the cells for 60 minutes at 37° C. followed by a 15 minute incubation at 22° C. Thereafter, the assay plates are positioned in a microplate reader (CellLux, PerkinElmer) and the test compound, reference antagonist or HBSS buffer is added. 5 minutes later, 1 nM [MePhe^7]-NKB or HBSS buffer (basal control) is added, and changes in fluorescence intensity are measured.
The standard reference antagonist is SB 222200, which is tested in each experiment at several concentrations to generate a concentration-response curve from which an IC50 value can be calculated.

T1 sequence (P29371 whole entry): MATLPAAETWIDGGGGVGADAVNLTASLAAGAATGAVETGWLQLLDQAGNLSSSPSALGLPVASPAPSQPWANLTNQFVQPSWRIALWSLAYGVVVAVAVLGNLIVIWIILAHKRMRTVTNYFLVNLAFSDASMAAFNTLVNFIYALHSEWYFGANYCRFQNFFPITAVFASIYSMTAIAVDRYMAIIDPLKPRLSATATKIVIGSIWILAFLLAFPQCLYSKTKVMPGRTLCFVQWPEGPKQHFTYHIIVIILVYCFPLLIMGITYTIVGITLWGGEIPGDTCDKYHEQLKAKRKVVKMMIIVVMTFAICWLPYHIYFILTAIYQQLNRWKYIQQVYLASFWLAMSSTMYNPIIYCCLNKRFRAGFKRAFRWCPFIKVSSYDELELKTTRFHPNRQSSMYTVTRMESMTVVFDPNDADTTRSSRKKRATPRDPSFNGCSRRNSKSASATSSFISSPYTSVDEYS
Sequence of GSNOR (P11766 whole entry): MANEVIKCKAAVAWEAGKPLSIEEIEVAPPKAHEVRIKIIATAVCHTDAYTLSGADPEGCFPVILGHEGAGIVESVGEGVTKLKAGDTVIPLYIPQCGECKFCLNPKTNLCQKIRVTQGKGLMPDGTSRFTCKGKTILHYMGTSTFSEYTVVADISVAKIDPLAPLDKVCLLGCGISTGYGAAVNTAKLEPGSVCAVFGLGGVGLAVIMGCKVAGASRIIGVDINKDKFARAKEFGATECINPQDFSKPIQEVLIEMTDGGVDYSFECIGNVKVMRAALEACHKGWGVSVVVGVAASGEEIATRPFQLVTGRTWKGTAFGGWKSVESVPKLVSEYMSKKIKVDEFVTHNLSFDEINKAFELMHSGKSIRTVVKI

SMILES | inhibition at 10 µM [2] [%] | IC50 [3] [nM] | inhibition at 1 µM [4] [%] | further results
Cn1cc(C2=C(c3ccsc3)C(c3ccc(C(=O)O)c(O)c3)NC(=O)N2)cn1 (racemic) [2-hydroxy-4-(6-(1-methyl-1H-pyrazol-4-yl)-2-oxo-5-(thiophen-3-yl)-1,2,3,4-tetrahydropyrimidin-4-yl)benzoic acid] | – | – | – | IC50 [1]: 39 nM
Cn1cc(C2=C(c3ccsc3)[C@H](c3ccc(C(=O)O)c(O)c3)NC(=O)N2)cn1 [2-hydroxy-4-(6-(1-methyl-1H-pyrazol-4-yl)-2-oxo-5-(thiophen-3-yl)-1,2,3,4-tetrahydropyrimidin-4-yl)benzoic acid] | – | – | – | IC50 [1]: 23 nM
CCOc1cc(C2NC(=O)NC(c3ccccc3)=C2c2ccccc2)cc(C#N)c1O (stereo not drawn) [3-ethoxy-2-hydroxy-5-(2-oxo-5,6-diphenyl-1,2,3,4-tetrahydropyrimidin-4-yl)benzonitrile] | > 50 | ≤ 1000 | > 50 | –
CCOc1cc(C2C(c3ccccc3)=C(c3ccccc3)N(C)C(=O)N2C)cc([N+](=O)[O-])c1O (stereo not drawn) [4-(3-ethoxy-4-hydroxy-5-nitrophenyl)-1,3-dimethyl-5,6-diphenyl-3,4-dihydropyrimidin-2(1H)-one] | – | ≤ 100 | > 50 | –
CCOc1cc(C2C(c3ccccc3)=C(c3ccccc3)NC(=O)N2C)cc([N+](=O)[O-])c1O (stereo not drawn) [4-(3-ethoxy-4-hydroxy-5-nitrophenyl)-3-methyl-5,6-diphenyl-3,4-dihydropyrimidin-2(1H)-one] | – | ≤ 1000 | > 50 | –
CCOc1cc([C@@H]2NC(=O)NC(c3ccccc3)=C2c2ccccc2)cc([N+](=O)[O-])c1O [4-(3-ethoxy-4-hydroxy-5-nitrophenyl)-5,6-diphenyl-3,4-dihydropyrimidin-2(1H)-one] | – | 19000 | – | –
CCOc1cc(C2NC(=O)NC(c3cccc(OC)c3)=C2c2ccccc2)cc([N+](=O)[O-])c1O (stereo not drawn) [4-(3-ethoxy-4-hydroxy-5-nitrophenyl)-6-(3-methoxyphenyl)-5-phenyl-3,4-dihydropyrimidin-2(1H)-one] | > 50 | – | > 50 | –
CCOc1cc(C2NC(=O)NC(c3ccccc3)=C2c2cccc(C)c2)cc([N+](=O)[O-])c1O (stereo not drawn) [4-(3-ethoxy-4-hydroxy-5-nitrophenyl)-6-phenyl-5-m-tolyl-3,4-dihydropyrimidin-2(1H)-one] | – | ≤ 1000 | > 50 | –
COc1cc(C2NC(=O)NC(c3ccccc3)=C2c2ccccc2)cc([N+](=O)[O-])c1O (stereo not drawn) [4-(4-hydroxy-3-methoxy-5-nitrophenyl)-5,6-diphenyl-3,4-dihydropyrimidin-2(1H)-one] | > 50 | – | > 50 | –
CCOc1cc(C2NC(=O)NC(c3ccccc3)=C2c2cccc(Cl)c2)cc([N+](=O)[O-])c1O (stereo not drawn) [5-(3-chlorophenyl)-4-(3-ethoxy-4-hydroxy-5-nitrophenyl)-6-phenyl-3,4-dihydropyrimidin-2(1H)-one] | – | ≤ 1000 | > 50 | –
CCOc1cc(C2NC(=O)NC(c3ccc(Cl)c(F)c3)=C2c2ccccc2)cc([N+](=O)[O-])c1O (stereo not drawn) [6-(4-chloro-3-fluorophenyl)-4-(3-ethoxy-4-hydroxy-5-nitrophenyl)-5-phenyl-3,4-dihydropyrimidin-2(1H)-one] | > 50 | – | > 50 | –
CCOc1cc([C@H]2NC(=O)NC(c3ccccc3)=C2c2ccccc2)cc([N+](=O)[O-])c1O [(R)-4-(3-ethoxy-4-hydroxy-5-nitrophenyl)-5,6-diphenyl-3,4-dihydropyrimidin-2(1H)-one] | – | 110 | – | –
CCOc1cc([C@H]2NC(=O)NC(c3cccnc3)=C2c2ccccc2)cc([N+](=O)[O-])c1O [(R)-4-(3-ethoxy-4-hydroxy-5-nitrophenyl)-5-phenyl-6-(pyridin-3-yl)-3,4-dihydropyrimidin-2(1H)-one] | – | 700 | – | –

Second part, led by results:

inhibition at 10 µM [2] [%] | IC50 [3] [nM] | inhibition at 1 µM [4] [%] | SMILES | further results
– | ≤ 1000 | > 50 | CCOc1cc(C2NC(=O)N(C)C(c3ccccc3)=C2c2ccccc2)cc([N+](=O)[O-])c1O (stereo not drawn) [4-(3-ethoxy-4-hydroxy-5-nitrophenyl)-1-methyl-5,6-diphenyl-3,4-dihydropyrimidin-2(1H)-one] | –
– | 55000 | – | CCOc1cc([C@@H]2NC(=O)NC(c3cccnc3)=C2c2ccccc2)cc([N+](=O)[O-])c1O [4-(3-ethoxy-4-hydroxy-5-nitrophenyl)-5-phenyl-6-(pyridin-3-yl)-3,4-dihydropyrimidin-2(1H)-one] | –
– | 22000 | – | CCOc1cc([C@@H]2NC(=O)NC(c3ccccc3)=C2c2ccsc2)cc([N+](=O)[O-])c1O [4-(3-ethoxy-4-hydroxy-5-nitrophenyl)-6-phenyl-5-(thiophen-3-yl)-3,4-dihydropyrimidin-2(1H)-one] | –
> 50 | – | > 50 | COCCOc1cc(C2NC(=O)NC(c3ccccc3)=C2c2ccccc2)cc([N+](=O)[O-])c1O (stereo not drawn) [4-(4-hydroxy-3-(2-methoxyethoxy)-5-nitrophenyl)-5,6-diphenyl-3,4-dihydropyrimidin-2(1H)-one] | –
– | ≤ 1000 | > 50 | CCOc1cc(C2NC(=O)NC(c3ccccc3)=C2c2ccccc2)cc2oc(=O)[nH]c12 (stereo not drawn) [4-ethoxy-6-(2-oxo-5,6-diphenyl-1,2,3,4-tetrahydropyrimidin-4-yl)benzo[d]oxazol-2(3H)-one] | –
> 50 | ≤ 100 | > 50 | CCOc1cc(C2NC(=O)NC(c3ccccc3)=C2C2CCCCC2)cc([N+](=O)[O-])c1O (stereo not drawn) [5-cyclohexyl-4-(3-ethoxy-4-hydroxy-5-nitrophenyl)-6-phenyl-3,4-dihydropyrimidin-2(1H)-one] | agonist effect [5]: no effect was seen; antagonist effect [6]: antagonist effect was seen
– | 1400 | – | CCOc1cc([C@H]2NC(=O)NC(c3ccccc3)=C2c2ccsc2)cc([N+](=O)[O-])c1O [(R)-4-(3-ethoxy-4-hydroxy-5-nitrophenyl)-6-phenyl-5-(thiophen-3-yl)-3,4-dihydropyrimidin-2(1H)-one] | –

Reference: US8906933B2, “Dihydropyrimidin-2(1H)-one compounds as neurokinin-3 receptor antagonists” (N30 Pharmaceuticals, Inc., priority 2010, dated 2014)
